Where “and” joins values, the source holds several entries; their conditions need not be identical. Identical values can stand only once. Values belong to the compound of their own block, whether it stands above or below them.
Experiments:
LNCaP cells [1] = assay: Internalization into LNCaP cells, relative cellular uptake to ([^125I]I-BA)KuE; assay type: cell-based; details: c = 1.0 nM ^177Lu-labeled inhibitor, 37° C., 60 min, corrected for non-specific binding (10 μM 2-PMPA), mean ± SD (n = 3)
Protocol: PSMA-positive LNCAP cells (300265; Cell Lines Service GmbH) were cultivated in Dulbecco modified Eagle medium/Nutrition Mixture F-12 (1/1) (DMEM-F12, Biochrom) supplemented with fetal calf serum (FCS) (10%, Biochrom) and kept at 37° C. in a humidified CO2 atmosphere (5%). One day (24 h±2 h) prior to all experiments with LNCaP cells, the cultivated cells were harvested using a mixture of trypsin/ethylendiaminetetraacetate (0.05%/0.02%) and PBS and centrifuged. After centrifugation, the supernatant was disposed and the cell pellet resuspended in culture medium. Afterwards, cells were counted with a hemocytometer (Neubauer) and seeded in 24-well plates.
Subsequent to the removal of the culture medium, the cells were washed once with DMEM-F12-solution (500 μL, 5% BSA) and left to equilibrate for at least 15 min at 37° C. in DMEM-F12-solution (200 μL, 5% BSA). Afterwards, each well was treated with either DMEM-F12-solution (25 μL, 5% BSA) or 2-PMPA-solution (25 μL, 100 μm) for blockade. […] The experiment was terminated by placing the 24-well plate on ice for 3 min and the consecutive removal of the medium. Each well was rinsed with HBSS (250 μL) and the fractions from these first two steps combined, representing the amount of free radioligand. Removal of surface bound activity was accomplished by incubation of the cells with ice-cold 2-PMPA-solution (250 μL, 10 μm in PBS) for 5 min and subsequent rinsing with ice-cold PBS (250 μL). The internalized activity was determined through incubation of the cells in NaOH (250 μL, 1.0 m) and the combination with the fraction of the subsequent washing step with again NaOH (250 μL, 1.0 m). Each experiment (control and blockade) was performed in triplicate for each time point. Free, surface bound and internalized activity was quantified in a γ-counter.

[2] = Lipophilicity, logP in n-octanol/PBS of radiolabeled PSMA inhibitors; assay type: physicochemical; details: pH 7.4
Protocol: The radiolabeled PSMA inhibitor (0.5 to 1.0 MBq) dissolved in PBS (500 μL, pH=7.4), was added to n-octanol (500 μL) in a reaction vial (1.5 mL), which was rigorously vortexed for 3 min (n=6). For quantitative phase separation, the mixture was centrifuged at 6,000 g for 5 min (Biofuge 15, Heraus Sepatech, Osterode, Germany). The activity from samples of each phase (100 μL) were measured in a γ-counter to obtain the log P(o/w) value.

HSA = target: T1, HSA (Homo sapiens, UniProt P02768); assay: HSA binding on Chiralpak HSA column; assay type: in vitro ADME
T1 construct: purchased Daicel Chemical Industries / Chiral Technologies Europe (Illkirch, France)
T1 sequence (P02768 25-609): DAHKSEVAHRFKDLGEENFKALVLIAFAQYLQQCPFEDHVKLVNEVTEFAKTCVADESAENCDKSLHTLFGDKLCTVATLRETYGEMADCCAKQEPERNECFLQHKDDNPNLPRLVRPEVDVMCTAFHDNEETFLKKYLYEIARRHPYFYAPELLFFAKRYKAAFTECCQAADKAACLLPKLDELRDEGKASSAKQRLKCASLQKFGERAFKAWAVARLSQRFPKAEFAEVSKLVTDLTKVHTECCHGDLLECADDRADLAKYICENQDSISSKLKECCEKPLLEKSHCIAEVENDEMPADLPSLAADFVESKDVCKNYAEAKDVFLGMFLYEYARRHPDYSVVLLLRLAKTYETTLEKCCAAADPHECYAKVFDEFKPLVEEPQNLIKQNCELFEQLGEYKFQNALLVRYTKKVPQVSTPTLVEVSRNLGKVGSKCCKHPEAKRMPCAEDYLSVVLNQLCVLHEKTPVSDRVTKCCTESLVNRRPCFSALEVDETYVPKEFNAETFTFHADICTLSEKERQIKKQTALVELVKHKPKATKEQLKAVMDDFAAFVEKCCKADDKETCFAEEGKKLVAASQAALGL
Protocol: HSA binding experiments were performed as previously described. […] For each run, 10 μL of the solution containing the inhibitor was injected into the RP-HPLC system and the retention time measured. […] Non-linear regression was established with OriginPro 2016G.

LNCaP cells [3] = assay: Externalization kinetics / cell retention in LNCaP cells; assay type: cell-based
Protocol: FIG. 2: Externalization kinetics of selected ^177Lu-labeled PSMA inhibitors from LNCaP cells. […] Then, the supernatant was removed and once washed with DMEM-solution (5% BSA, 37° C.). Afterwards, either A) only DMEM-solution (5% BSA) or B) blockade DMEM-solution (5% BSA, 10 μm 2-PMPA) were added for replacement. The total cellular internalized activity at t=0 min was corrected for non-specific binding (10 μm 2-PMPA) and normalized to 100%. All data are expressed as mean±SD (n=3).
Externalization kinetics of the radiolabeled PSMA inhibitors were determined using LNCaP cells, which were similarly prepared as described for the internalization assay. After an initial cell-washing step with DMEM-F12-solution (5% BSA), the cells were left to recondition for at least 15 min at 37° C. Subsequently, the LNCaP cells were incubated with the respective radiolabeled peptide (25 μL, 10.0 nm) at 37° C. for 60 min in a total volume of 250 μL in each well. After 60 min, the supernatant with the unbound free fraction was removed and measured in a γ-counter for the calculation of total added radioactivity. An acid wash step was avoided to warrant enzyme integrity during the following externalization and recycling study. To determine the recycling rate, fresh DMEM-F12-solution (250 μL, 5% BSA) was given to the cells to allow re-internalization. In contrast, re-internalization was inhibited by addition of DMEM-F12-solution containing 2-PMPA (225 μL DMEM-F12 (5% BSA) and 25 μL of 100 μm 2-PMPA-solution (PBS)). The cells were then incubated for 0, 20, 40 and 60 min at 37° C. Consequently, the supernatant was removed and the cells were washed with ice-cold HBSS (250 μL). The combination of the supernatant and the volume of the concomitant washing step with HBSS (200 μL) account for externalized radioligand at the investigated time point. Further, the cells were then washed with ice-cold 2-PMPA HBSS solution (250 μL, 10 μm) twice, combined and thus represented the fraction of membrane-bound radioligand. The determination of the internalized fraction was achieved by lysis as described for the internalization assay with NaOH (250 μL, 1.0 m). The activities of free, externalized, membrane-bound and internalized radioligand were quantified in a γ-counter.

LNCaP-tumor xenograft = assay: Biodistribution in LNCaP-tumor xenograft bearing CB-17 SCID mice; assay type: in vivo; details: male, CB-17 SCID, mouse, in vivo
Protocol: (§1) All animal experiments were carried out in accordance with the general animal welfare regulations in Germany (Deutsches Tierschutzgesetz, approval #55.2-1-54-2532-71-13). For the tumor model, LNCaP cells (approx. 10^7 cells) were suspended in serum-free DMEM-F12 medium and Matrigel (1/1; v/v) (BD Biosciences, Germany) and inoculated onto the right shoulder of male, 6 to 8 weeks old CB-17 SCID mice (Charles River Laboratories, Sulzfeld, Germany). Animals were used after the tumor size reached 4 to 8 mm in diameter for experiments.

LNCaP-tumor = system: LNCaP-tumor; design: species or system CB-17 SCID mice; details: male, CB-17 SCID, mouse, in vivo, 85 min
Protocol: as §1
Imaging experiments were conducted using a Siemens Inveon small animal PET and the data analyzed by the associated Inveon Research Workplace software. Mice were anaesthetized with isoflurane and approx. 4.0 to 17 MBq of the ^68Ga-labeled compounds were injected via tail vein (approx. 150 to 300 μL). Dynamic imaging was carried out after on-bed injection for 90 min. The static blockade image was obtained after 1 h p.i. with 15 min acquisition time. PSMA-blockade was achieved by coinjection of 8 mg/kg of 2-PMPA-solution (PBS). All images were reconstructed using an OSEM3D algorithm without […] and attenuation correction.

logP [2]: -4.25 ± 0.14
HSA (albumin binding) (HSA; human, 0.5 mg/mL): 64.4%
adrenal gland (LNCaP-tumor xenograft; 1 h): 0.78 ± 0.07 % ID/g
blood (LNCaP-tumor xenograft; 1 h): 0.50 ± 0.03 % ID/g
bone (LNCaP-tumor xenograft; 1 h): 0.37 ± 0.13 % ID/g
brain (LNCaP-tumor xenograft; 1 h): 0.02 ± 0.01 % ID/g
heart (LNCaP-tumor xenograft; 1 h): 0.49 ± 0.06 % ID/g
intestine (LNCaP-tumor xenograft; 1 h): 0.21 ± 0.03 % ID/g
liver (LNCaP-tumor xenograft; 1 h): 0.32 ± 0.02 % ID/g
lung (LNCaP-tumor xenograft; 1 h): 0.62 ± 0.12 % ID/g
muscle (LNCaP-tumor xenograft; 1 h): 0.19 ± 0.07 % ID/g
pancreas (LNCaP-tumor xenograft; 1 h): 0.15 ± 0.04 % ID/g
spleen (LNCaP-tumor xenograft; 1 h): 1.93 ± 0.04 % ID/g
stomach (LNCaP-tumor xenograft; 1 h): 0.28 ± 0.04 % ID/g
tumor/blood (LNCaP-tumor xenograft; 1 h): 20.0
tumor/kidney (LNCaP-tumor xenograft; 1 h): 0.09
tumor/muscle (LNCaP-tumor xenograft; 1 h): 52.6
adrenal g. (LNCaP-tumor xenograft; 24 h): 0.09 ± 0.09 % ID/g
blood (LNCaP-tumor xenograft; 24 h): 0.003 ± 0.001 % ID/g
bone (LNCaP-tumor xenograft; 24 h): 0.02 ± 0.01 % ID/g
brain (LNCaP-tumor xenograft; 24 h): 0.01 ± 0.001 % ID/g
heart (LNCaP-tumor xenograft; 24 h): 0.03 ± 0.007 % ID/g
intestine (LNCaP-tumor xenograft; 24 h): 0.11 ± 0.07 % ID/g
kidney (LNCaP-tumor xenograft; 24 h): 20.92 ± 2.51 % ID/g
liver (LNCaP-tumor xenograft; 24 h): 0.14 ± 0.02 % ID/g
lung (LNCaP-tumor xenograft; 24 h): 0.03 ± 0.007 % ID/g
muscle (LNCaP-tumor xenograft; 24 h): 0.02 ± 0.006 % ID/g
pancreas (LNCaP-tumor xenograft; 24 h): 0.02 ± 0.007 % ID/g
spleen (LNCaP-tumor xenograft; 24 h): 0.09 ± 0.02 % ID/g
stomach (LNCaP-tumor xenograft; 24 h): 0.07 ± 0.03 % ID/g
t/blood (LNCaP-tumor xenograft; 24 h): 1910.0
t/kidney (LNCaP-tumor xenograft; 24 h): 0.3
t/liver (LNCaP-tumor xenograft; 24 h): 40.9
t/muscle (LNCaP-tumor xenograft; 24 h): 286.5
SMILES: O=C(O)CC[C@H](NC(=O)N[C@@H](CCC(=O)N[C@H](CCCNC(=O)C[C@@H](NC(=O)c1cc(C(=O)O)cc(C(=O)O)c1)C(=O)NCCCC[C@@H](NC(=O)[C@@H](Cc1ccc2ccccc2c1)NC(=O)[C@@H](Cc1ccc(O)cc1)NC(=O)[C@H](CNC(=O)c1cc(C(=O)O)cc(C(=O)O)c1)NC(=O)CCC(C(=O)O)N1CCN(CC(=O)O)CCN(CC(=O)O)CCN(CC(=O)O)CC1)C(=O)O)C(=O)O)C(=O)O)C(=O)O (stereo partly drawn) [PSMA-66, DOTAGA-Dap(TMA)y-2-nal-k(d[N^5-orn-C^4-EuE]-TMA)]
Internalization (LNCaP cells [1]; listed as [^177Lu]PSMA-66): 297.8±2.0% and 297.8%
Internalization (LNCaP cells [1]; listed as [^nat/177Lu]PSMA-66): 297.8 ± 2.0%
in vitro tumor cell retention (LNCaP cells [3]; 60 min incubation, ^177Lu-labeled): 90.1±3.5%
intracellular activity in the tumor cells (LNCaP cells [3]; after 1 h, ^177Lu-labeled): highest intracellular activity in the tumor cells after 1 h
intracellular clearance (LNCaP cells [3]; re-internalization blocked with 100 μM 2-PMPA-solution): lower than for all other investigated compounds

SMILES: O=C(O)CC[C@H](NC(=O)N[C@@H](CCCCNC(=O)CCCCC[C@H](NC(=O)c1ccc([N+](=O)[O-])cc1[N+](=O)[O-])C(=O)NCCCC[C@@H](NC(=O)[C@@H](Cc1ccccc1)NC(=O)[C@@H](Cc1ccc(O)c(I)c1)NC(=O)CCC(C(=O)O)N1CCN(CC(=O)O)CCN(CC(=O)O)CCN(CC(=O)O)CC1)C(=O)O)C(=O)O)C(=O)O (stereo partly drawn) [PSMA-36, DOTAGA-y(3-I)fk(L-Asu[KuE]-2,4-DNBA)]
Internalization (LNCaP cells [1]): 189.8 ± 37.5%
HSA (albumin binding) (HSA; after logarithmic plotting and calibration (n = 1)): 82.5%
tumor uptake (PET) (LNCaP-tumor): 3.5 % ID/mL
